Target: T1, PkPSD proenzyme; MBP-His6-Δ34PkPSD(S308A) (Plasmodium knowlesi, UniProt B3L2V1, S308A)
T1 construct: gene PKH_072580
Assay: biochemical

T1 sequence (B3L2V1 35-354 S308A): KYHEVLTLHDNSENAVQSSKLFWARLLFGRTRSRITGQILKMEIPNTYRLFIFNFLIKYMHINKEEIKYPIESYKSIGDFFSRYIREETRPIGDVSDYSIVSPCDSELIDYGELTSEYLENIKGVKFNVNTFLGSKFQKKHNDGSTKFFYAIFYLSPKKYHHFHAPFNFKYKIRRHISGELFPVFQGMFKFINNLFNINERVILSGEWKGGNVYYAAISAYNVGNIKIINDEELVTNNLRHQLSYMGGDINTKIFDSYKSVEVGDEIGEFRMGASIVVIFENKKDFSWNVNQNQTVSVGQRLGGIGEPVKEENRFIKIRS

SMILES	Kd [µM]
CCCCCCCC/C=C\CCCCCCCC(=O)OC[C@H](COP(=O)(O)OCC(O)CO)OC(=O)CCCCCCC/C=C\CCCCCCCC (some centres unmarked) [DOPG]	0.0664
CCCCCCCC/C=C\CCCCCCCC(=O)OC[C@H](COP(=O)(O)OC[C@H](N)C(=O)O)OC(=O)CCCCCCC/C=C\CCCCCCCC [DOPS]	0.0804
